Columns and labels:
Test in all cases: X-ray crystal structure, […] A
Format in all cases: binding
PaGT3 [1] = target: T1, PaGT3 (Phytolacca americana, UniProt B5MGN9); conditions: co-crystallized without acceptor; sugar-donor site; non-transferred donor analogue; also bound in 7vej and 7vek
T1 construct: full length; N-terminal His6 tag with TEV site, cut off (one Gly left before Met1); expressed in E. coli BL21 (DE3); two molecules in the asymmetric unit

PaGT3 [2] = target: T1, PaGT3; conditions: soaked into PaGT3/UDP-2FGlc crystals; acceptor site, molecule B only, occupancy 0.8
PaGT3 [3] = target: T1, PaGT3; conditions: co-crystallized with UDP-2FGlc; acceptor site, both molecules, two different positions

T1 sequence (B5MGN9 entry or part of it): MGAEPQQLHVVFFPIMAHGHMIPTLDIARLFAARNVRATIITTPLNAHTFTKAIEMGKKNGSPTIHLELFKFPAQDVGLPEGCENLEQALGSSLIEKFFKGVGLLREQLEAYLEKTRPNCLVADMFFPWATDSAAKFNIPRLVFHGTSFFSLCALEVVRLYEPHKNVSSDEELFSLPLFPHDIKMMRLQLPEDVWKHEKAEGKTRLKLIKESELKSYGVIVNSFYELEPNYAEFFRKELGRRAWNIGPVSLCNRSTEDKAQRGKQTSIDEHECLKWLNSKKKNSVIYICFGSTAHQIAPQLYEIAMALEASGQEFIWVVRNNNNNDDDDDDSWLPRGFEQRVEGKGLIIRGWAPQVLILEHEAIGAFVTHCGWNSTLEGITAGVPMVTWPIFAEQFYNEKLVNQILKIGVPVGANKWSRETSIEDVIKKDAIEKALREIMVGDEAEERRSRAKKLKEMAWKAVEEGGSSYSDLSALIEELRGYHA

With `O=c1ccn([C@@H]2O[C@H](COP(=O)(O)OP(=O)(O)O[C@H]3O[C@H](CO)[C@@H](O)[C@H](O)[C@H]3F)[C@@H](O)[C@H]2O)c(=O)[nH]1` [UDP-2FGlc] the “X-ray crystal structure, 2.20 A” value (PaGT3 [1]) was “The crystal structure of PaGT3 with the sugar-donor analogue UDP-2FGlc was determined”.

For `COc1cc(CNC(=O)CCCC/C=C/C(C)C)ccc1O` [capsaicin], the “X-ray crystal structure, 2.60 A” value (PaGT3 [2]) was “The calculated polder map confirms the occupancy of capsaicin in PaGT3 molecule B”.

In the case of `O=c1c(O)c(-c2ccc(O)cc2)oc2cc(O)cc(O)c12` [kaempferol], the “X-ray crystal structure, 1.85 A” value (PaGT3 [3]) is reported as “The electron density of kaempferol in both molecules of the enzyme”.

From publication PMC8900826, “Structural basis for substrate recognition in the Phytolacca americana glycosyltransferase PaGT3” (Acta Crystallographica. Section D, Structural Biology, 2022)
